In patent US20240210394A1, “MICROORGANISM CAPTURE FROM ANTIMICROBIAL-CONTAINING SOLUTION” (MOMENTUM BIOSCIENCE LIMITED, priority 2019, published 2024):

Test system: S. aureus
Experiment: Total viable count (TVC) plate counts of spiked samples (T0/T2)
Format: cell-based
Settings: for TVC T2: 100 μL plated after 2 h at 37° C.; for TVC T0: 100 μL plated at time 0
Experimental: Test dilution(s) of organism was added to blood+antibiotic or blood only at 10 μL per mL of blood (sufficient prepared for experiment requirements). 100 μL plate count sample was taken (TO sample).
The inoculated samples were incubated at 37° C. (static) for 2-hour. 100 μL plate count sample was taken (T2 sample).
For the ‘rescue’ test, 5 mL of spiked blood+abx or blood only was treated with Momentum Capture Beads (Streptavidin-coated, −300 nm beads, Bio estapor, Merk Cat #BE-M 08/0.3) as below: • Momentum Capture Beads diluted in Detergent-free Microbial Binding Buffer (DMBB—Tris+NaCl)—50 μL beads:700 μL DMBB per clean-up • 750 μL of diluted beads added to 50 mL conical centrifuge tube • 5 mL of broth medium added to tube • 5 mL of spiked blood+abx or blood only added to tube • Incubate on ITL TherMix (Integrated Technologies Ltd. Kent, UK), 32.5° C./30 min/1000 rpm—ramped speed protocol • Magnetise on V&P magnet (V&P scientific Inc, CA, US) for 5 min then remove supernatant • Resuspend beads in 1 mL Detergent-free Wash Buffer (DWB—Tris+NaCl) off magnet and transfer to 2 mL Eppendorf flip-top tube on DynaMag-2 magnet (Thermo Fisher Scientific, Life Technologies Ltd. Paisley, UK) • Magnetise for 5 min then remove supernatant • Resuspend beads in 1 mL DWB off magnet then replace on DynaMag-2 magnet • Magnetise for 5 min then remove supernatant • Resuspend beads in 1 mL DWB, add to a fresh, unused blood culture bottle (BioMerieux SA culture bottle) containing standard blood culture growth medium using a vial adapter, and start incubation (adapter removed). • Blood culture bottles are incubated in the automated blood culture cabinet (BacT/ALERT BioMerieux) which records time to positivity. The “Flip” time is when a bottle turns positive as determined by the automated blood culture cabinet. • “Flip” time of each bottle is recorded. • Plate counts (Total Viable Count TVC) are recorded.
Day 2: Prepare ten-fold serial dilution of overnight culture in blood/broth as required • Antibiotic added to whole blood (defibrinated horse blood) at required level • Whole blood as no-antibiotic control • Test dilution(s) of organism added to blood+antibiotic or blood only at 10 μL per mL of blood (sufficient prepared for experiment requirements) • 100 μL plate count sample taken (TO sample) • 2-hour incubation at 37° C. (static), to mimic organism exposure to antimicrobials in the patient • 100 μL plate count sample taken (T2 sample) • 5 mL of spiked blood+abx or blood only added to blood culture bottle (using vial adapter) and incubation started (adapter removed) • 5 mL of spiked blood+abx or blood only (from same source) treated with Momentum Capture Beads as below: • 1. […]
Day 3: Plate counts recorded. […]

[1] = S. aureus spike dil 10-3 in blood + Piperacillin 96 ug/ml
[2] = S. aureus spike dil 10-4 in blood + Piperacillin 96 ug/ml

Compound: CCN1CCN(C(=O)N[C@@H](C(=O)N[C@@H]2C(=O)N3[C@@H]2SC(C)(C)[C@@H]3C(=O)O)c2ccccc2)C(=O)C1=O [Piperacillin]
- TVC T2 [1]: 2
- TVC T0 [1]: 98
- TVC T2 [2]: 0
- TVC T0 [2]: 15
